# Active and inactive are the calls of the source. The rule behind the calls is not given here.
# Molecular target: Tubulin (Homo sapiens) (UniProt P68371+Q9H4B7+P0DPH7+P68366+Q13509+Q71U36+P04350+Q3ZCM7+P07437+P68363+Q9BQE3+Q6PEY2+Q13885+Q9BVA1+Q9BUF5)
# Assay: Inhibition of tubulin (unknown origin) assessed as inhibition of tubulin polymerization at 10 uM measured for 50 mins by fluorescence based analysis
# Format: protein-complex assay
row,inhibition,Structure (SMILES)
1,Active,C1=C2CCC3=Cc4c(ccc5ccccc45)OC23Oc2ccc3ccccc3c21
2,Active,CC[C@]1(O)C[C@@H]2CN(CCc3c([nH]c4ccccc34)[C@@](C(=O)OC)(c3cc4c(cc3OC)N(C)[C@H]3[C@@](O)(C(=O)OC)[C@H](OC(C)=O)[C@]5(CC)C=CCN6CC[C@]43[C@@H]65)C2)C1
3,Active,C1=C2COCC3=Cc4c(ccc5ccccc45)OC23Oc2ccc3ccccc3c21

# From ChEMBL document CHEMBL4680293, “Tubulin inhibitory activity of a novel colchicine-binding compounds based on a dinaphthospiropyranran scaffold” (Bioorg Med Chem, 2021)
